One data set addresses T1, Amuc_1686_short (Akkermansia muciniphila, UniProt B2UM60).
T1 construct: gene Amuc_1686; signal peptide removed, last 107 amino acids (C-terminal discoidin domain) deleted; N-terminal Strep-tag (pASK-IBA5), E. coli BL21(DE3); primers start at codons AAPMPF and end in DNGPH-stop
T1 sequence (B2UM60 18-673): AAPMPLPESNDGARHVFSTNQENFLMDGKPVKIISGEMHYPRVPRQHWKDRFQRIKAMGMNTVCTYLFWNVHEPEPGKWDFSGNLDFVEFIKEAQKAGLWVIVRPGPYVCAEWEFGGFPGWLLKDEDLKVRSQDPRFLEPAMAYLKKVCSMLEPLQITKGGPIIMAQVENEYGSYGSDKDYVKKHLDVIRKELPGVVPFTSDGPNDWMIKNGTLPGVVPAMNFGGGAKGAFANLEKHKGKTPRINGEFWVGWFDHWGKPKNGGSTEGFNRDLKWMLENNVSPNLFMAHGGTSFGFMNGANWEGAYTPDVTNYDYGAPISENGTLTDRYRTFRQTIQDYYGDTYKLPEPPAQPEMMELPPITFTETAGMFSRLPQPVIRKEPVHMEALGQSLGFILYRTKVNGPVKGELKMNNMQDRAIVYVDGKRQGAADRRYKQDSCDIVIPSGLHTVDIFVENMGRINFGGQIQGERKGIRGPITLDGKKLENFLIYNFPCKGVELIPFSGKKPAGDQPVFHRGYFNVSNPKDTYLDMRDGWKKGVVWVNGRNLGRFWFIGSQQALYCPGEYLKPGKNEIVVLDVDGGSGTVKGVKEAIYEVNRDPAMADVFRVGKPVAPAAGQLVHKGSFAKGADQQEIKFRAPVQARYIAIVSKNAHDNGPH
The experiment in a line: photometric 4-nitrophenol release. It counts as biochemical. As to conditions: 5 mM substrate; 50 mM combined buffer pH 7.5, 37 °C.

Another data set has as its target T2, Amuc_1686 (Akkermansia muciniphila, UniProt B2UM60).
T2 construct: GH35 beta-galactosidase with C-terminal truncated discoidin (F5/8 type C) domain; signal peptide removed (predicted cleavage between 17 and 18), N-terminal Strep-tag kept (pASK-IBA5), E. coli BL21(DE3); 87 kDa tagged (86 kDa encoded); monomer; primers start at codons AAPMPF and end in FKPAK-stop
T2 sequence (B2UM60 18-780): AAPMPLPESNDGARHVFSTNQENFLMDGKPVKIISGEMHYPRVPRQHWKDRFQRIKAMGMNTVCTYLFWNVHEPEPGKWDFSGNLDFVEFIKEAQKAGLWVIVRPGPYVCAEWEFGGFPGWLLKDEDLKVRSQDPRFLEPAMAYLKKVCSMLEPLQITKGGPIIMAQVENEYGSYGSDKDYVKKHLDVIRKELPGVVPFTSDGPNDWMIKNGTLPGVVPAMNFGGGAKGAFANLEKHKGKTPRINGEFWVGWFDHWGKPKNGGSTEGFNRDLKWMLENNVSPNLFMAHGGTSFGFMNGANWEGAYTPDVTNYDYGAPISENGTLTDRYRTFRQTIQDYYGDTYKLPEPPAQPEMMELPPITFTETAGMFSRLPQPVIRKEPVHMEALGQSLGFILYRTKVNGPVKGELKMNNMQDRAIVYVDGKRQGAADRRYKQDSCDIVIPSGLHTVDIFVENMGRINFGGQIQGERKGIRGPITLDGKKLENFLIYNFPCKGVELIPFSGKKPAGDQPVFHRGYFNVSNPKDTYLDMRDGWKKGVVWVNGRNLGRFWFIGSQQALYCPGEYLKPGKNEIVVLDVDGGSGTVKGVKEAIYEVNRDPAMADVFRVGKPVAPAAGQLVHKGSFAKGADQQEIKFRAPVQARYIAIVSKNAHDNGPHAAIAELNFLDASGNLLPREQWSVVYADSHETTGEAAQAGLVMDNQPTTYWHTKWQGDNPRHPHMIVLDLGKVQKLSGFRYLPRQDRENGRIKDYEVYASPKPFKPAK
The experiment in a line: photometric 4-nitrophenol release. As to conditions: 5 mM 4-nitrophenyl beta-D-galactopyranoside; 50 mM combined buffer pH 7.5, 37 °C; lipid added in methanol; non-competitive; acyl chains not given. It counts as biochemical.

Substrate in the data set “purified protein”: O=[N+]([O-])c1ccc(O[C@@H]2O[C@H](CO)[C@H](O)[C@H](O)[C@H]2O)cc1
The experiment in a line: purified protein. As to conditions: 50 mM combined buffer pH 7.5, 65 °C.

Results on 6 molecules are retold here after PMC6692548, “Characterization of a phospholipid‐regulated β‐galactosidase from Akkermansia muciniphila involved in mucin degradation” (MicrobiologyOpen, 2019).

For `O=[N+]([O-])c1ccc(O[C@@H]2O[C@H](CO)[C@H](O)[C@H](O)[C@H]2O)cc1` [para‐nitrophenyl‐β‐D‐galactopyranoside], at Amuc_1686_short, the “photometric 4-nitrophenol release” value was “the shortened variant exhibited a slightly decreased enzymatic activity”. In the case of lysophosphatidic acid [LPA], the IC50 (usually the concentration that gives 50% inhibition) at Amuc_1686 amounted to 13.6 ± 10.6 µM. The same measure, in the same setting: as for phosphatidic acid [PA], the figure is 4.3 ± 0.2 µM; as for phosphatidylglycerol [PG], 1 ± 0.1 µM; as for phosphatidylserine [PS], 29.3 ± 1.5 µM.

B1: Amuc_1686 (Akkermansia muciniphila ATCC BAA-835) (protein)
chain: T2 sequence (B2UM60 18-780)
For B1, in “purified protein”, the Km (commonly the concentration of substrate that gives half-maximal velocity) was 500 ± 300 µM; the kcat (as a rule, the number of substrate molecules converted per active site and unit of time at saturation) was determined as 530.3 ± 87.1 s⁻¹.
